Legend:
EAE in SJL mice = assay: Murine active EAE model, mIFN-β protein and pBRES mIFN-β plasmid with MFP pellet; format: in vivo; details: 25 days
Method: FIG. 39A illustrates the effect of treatment of mice with induced EAE neuroinflammation with mIFN-β protein by SC injection every other day for 25 days. SJL mice were immunized on day 1 with proteolipid peptide (PLP) amino acids 139-151/pertussis according to the protocol described in Material and Methods. Groups of mice (n=10 per group) were injected SC on day 1 with mIFN-β protein, 100,000 units (500 ng) or 300,000 units (1500 ng), or vehicle. Animals were scored for EAE disease progression and the average clinical scores are provided with the standard error of the mean score (SEM).
FIG. 39B illustrates the delay in the onset of disease and decrease in the severity of disease following administration of pBRES mIFN-β as compared to the null vector control group. SJL mice were immunized on day I with PLP 139-151/pertussis according to the protocol described. Groups of mice (n=10 per group) were injected IM on day-7 with 200 ug of either pBRES null plasmid DNA or pBRES mIFN-β plasmid DNA with electroporation. One group of mice were treated daily with Prednisolone by IP injection and served as the positive control for the study. Plasmid treated mice were administered one mifepristone (MFP) containing slow release pellets by SC injection on day-3. Animals were scored for EAE disease progression and the average clinical scores are provided with the standard error of the mean score (SEM). […]

[1] = Luciferase reporter gene assay for activity of purified mIFN-β protein; format: cell-based
Method: Specifically, the gene encoding mIFN-β was cloned into a pCEP4 expression vector (Invitrogen). The expression plasmid encoding mIFN-β was transiently transfected into 293E cells (Edge Biosystems) using X-tremeGene Ro-1539 Transfection Reagent (Roche). Murine IFN-β protein was purified from the medium by ion-exchange chromatography and by hydrophobic-interaction chromatography. The product was sialyzed and concentrated against dilution buffer (50 mM sodium acetate, pH 5.5, 150 mM sodium chloride, and 5% polypropylene glycol) and sterile filtered. Aliquots of the purified protein were stored at −80° C. The activity of the purified protein was assessed using a luciferase reporter gene assay (Hardy et al. (2001) Blood 97:473-482), using a commercial mIFN-β reference standard from Access Biomedical (San Diego, Calif.). The specific activity of the purified protein was 2×10^8 units/mg.
The positive control used for this study was Prednisolone, 2.5 mg/kg, (Sigma, St. Louis) administered by IP injection twice daily, beginning on day 1, until the end of the study. For mIFN-β protein delivery, the mice were given SC injections of purified recombinant mIFN-β protein every other day, starting on day 1 of the study (100,000 or 300,000 IU per animal per injection in 100 ul vehicle buffer). […]

Substance: mIFN-β: purified recombinant murine interferon-beta protein expressed in 293E cells
- severity of disease (clinical scores) compared to vehicle (EAE in SJL mice; 100,000 units SC every other day): significantly reduced the severity of the disease
- severity of disease (clinical scores) compared to vehicle (EAE in SJL mice; 300,000 units SC every other day): significantly reduced the severity of the disease
- specific activity of the purified protein [1]: 2×10^8 units/mg

From US20070179113A1, “GM-CSF gene therapy for Crohn's disease using an improved regulated expression system” (Schering Aktiengesellachaft, priority 2005, published 2007)
